Reference: PubChem BioAssay (NCI)
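Test compounds were applied to cells in 96-well plates for 48 hours at 5 doses. At the GI50, growth is halved. TGI marks complete inhibition of growth.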

Tests used:
Experiment in all cases: NCI-60 cell line screen, 48 h; in the data active means GI50 below about 0.43 µM; inactive means the rest
A549 NSCLC = test system: A549 NSCLC
HCT-116 colon = test system: HCT-116 colon
SK-MEL-5 melanoma = test system: SK-MEL-5 melanoma
MDA-N = test system: MDA-N
CAKI-1 renal = test system: CAKI-1 renal
HOP-92 NSCLC = test system: HOP-92 NSCLC
MOLT-4 leukemia = test system: MOLT-4 leukemia
SNB-19 CNS = test system: SNB-19 CNS
HL-60(TB) leukemia = test system: HL-60(TB) leukemia
COLO 205 colon = test system: COLO 205 colon
OVCAR-3 ovarian = test system: OVCAR-3 ovarian
U251 CNS = test system: U251 CNS
SK-OV-3 ovarian = test system: SK-OV-3 ovarian
LOX IMVI melanoma = test system: LOX IMVI melanoma
SF-539 CNS = test system: SF-539 CNS
MDA-MB-231 breast = test system: MDA-MB-231 breast
SNB-75 CNS = test system: SNB-75 CNS
TK-10 renal = test system: TK-10 renal
KM12 colon = test system: KM12 colon
ACHN renal = test system: ACHN renal
T-47D breast = test system: T-47D breast
SW-620 colon = test system: SW-620 colon
UACC-257 melanoma = test system: UACC-257 melanoma
SF-295 CNS = test system: SF-295 CNS
EKVX NSCLC = test system: EKVX NSCLC
HCT-15 colon = test system: HCT-15 colon
OVCAR-8 ovarian = test system: OVCAR-8 ovarian
RXF 393 renal = test system: RXF 393 renal
MCF7 breast = test system: MCF7 breast
SK-MEL-28 melanoma = test system: SK-MEL-28 melanoma
HCC-2998 colon = test system: HCC-2998 colon
IGROV1 ovarian = test system: IGROV1 ovarian
UACC-62 melanoma = test system: UACC-62 melanoma
PC-3 prostate = test system: PC-3 prostate
NCI-H23 lung = test system: NCI-H23 lung
OVCAR-4 ovarian = test system: OVCAR-4 ovarian
HT29 colon = test system: HT29 colon
OVCAR-5 ovarian = test system: OVCAR-5 ovarian
SF-268 CNS = test system: SF-268 CNS
SK-MEL-2 melanoma = test system: SK-MEL-2 melanoma
M14 melanoma = test system: M14 melanoma
MDA-MB-435 = test system: MDA-MB-435
HOP-62 NSCLC = test system: HOP-62 NSCLC
RPMI-8226 leukemia = test system: RPMI-8226 leukemia
NCI-H522 lung = test system: NCI-H522 lung
DU-145 prostate = test system: DU-145 prostate
A498 renal = test system: A498 renal
MALME-3M melanoma = test system: MALME-3M melanoma
BT-549 breast = test system: BT-549 breast
NCI-H226 lung = test system: NCI-H226 lung
NCI/ADR-RES ovarian = test system: NCI/ADR-RES ovarian
CCRF-CEM leukemia = test system: CCRF-CEM leukemia
SN12C renal = test system: SN12C renal
786-0 renal = test system: 786-0 renal
K-562 leukemia = test system: K-562 leukemia
NCI-H460 lung = test system: NCI-H460 lung
UO-31 renal = test system: UO-31 renal
SR leukemia = test system: SR leukemia
HS 578T breast = test system: HS 578T breast
M19-MEL melanoma = test system: M19-MEL melanoma
HOP-18 NSCLC = test system: HOP-18 NSCLC
DLD-1 colon = test system: DLD-1 colon
LXFL 529 NSCLC = test system: LXFL 529 NSCLC
DMS 273 small cell lung = test system: DMS 273 small cell lung
SNB-78 CNS = test system: SNB-78 CNS
DMS 114 small cell lung = test system: DMS 114 small cell lung
KM20L2 colon = test system: KM20L2 colon

CC(Oc1ccccc1)C(=O)NN (stereo unspecified)
> 100000 nM: TGI (A549 NSCLC) | TGI (HCT-116 colon) | TGI (SK-MEL-5 melanoma) | TGI (MDA-N) | TGI (CAKI-1 renal) | TGI (HOP-92 NSCLC) | TGI (MOLT-4 leukemia) | TGI (SNB-19 CNS) | TGI (HL-60(TB) leukemia) | TGI (COLO 205 colon) | TGI (OVCAR-3 ovarian) | TGI (U251 CNS) | TGI (SK-OV-3 ovarian) | TGI (LOX IMVI melanoma) | TGI (SF-539 CNS) | TGI (MDA-MB-231 breast) | TGI (SNB-75 CNS) | TGI (TK-10 renal) | TGI (KM12 colon) | TGI (ACHN renal) | TGI (T-47D breast) | TGI (SW-620 colon) | TGI (UACC-257 melanoma) | TGI (SF-295 CNS) | TGI (EKVX NSCLC) | TGI (HCT-15 colon) | TGI (OVCAR-8 ovarian) | TGI (RXF 393 renal) | TGI (MCF7 breast) | TGI (SK-MEL-28 melanoma) | TGI (HCC-2998 colon) | TGI (IGROV1 ovarian) | TGI (UACC-62 melanoma) | TGI (PC-3 prostate) | TGI (NCI-H23 lung) | TGI (OVCAR-4 ovarian) | TGI (HT29 colon) | TGI (OVCAR-5 ovarian) | TGI (SF-268 CNS) | TGI (SK-MEL-2 melanoma) | TGI (M14 melanoma) | TGI (MDA-MB-435) | TGI (HOP-62 NSCLC) | TGI (RPMI-8226 leukemia) | TGI (NCI-H522 lung) | TGI (DU-145 prostate) | TGI (A498 renal) | TGI (MALME-3M melanoma) | TGI (BT-549 breast) | TGI (NCI-H226 lung) | TGI (NCI/ADR-RES ovarian) | TGI (CCRF-CEM leukemia) | TGI (SN12C renal) | TGI (786-0 renal) | TGI (K-562 leukemia) | TGI (NCI-H460 lung) | TGI (UO-31 renal) | TGI (SR leukemia) | TGI (HS 578T breast)

CCOC(=O)NC(=O)c1cn(CCCCCOC(=O)NCCCCCCNC(=O)OCCCCCn2cc(C(=O)NC(=O)OCC)c(=O)[nH]c2=O)c(=O)[nH]c1=O
> 100000 nM: TGI (A549 NSCLC) | TGI (HCT-116 colon) | TGI (SK-MEL-5 melanoma) | TGI (CAKI-1 renal) | TGI (M19-MEL melanoma) | TGI (MOLT-4 leukemia) | TGI (SNB-19 CNS) | TGI (HL-60(TB) leukemia) | TGI (COLO 205 colon) | TGI (OVCAR-3 ovarian) | TGI (U251 CNS) | TGI (SK-OV-3 ovarian) | TGI (HOP-18 NSCLC) | TGI (LOX IMVI melanoma) | TGI (SF-539 CNS) | TGI (DLD-1 colon) | TGI (SNB-75 CNS) | TGI (KM12 colon) | TGI (ACHN renal) | TGI (SW-620 colon) | TGI (UACC-257 melanoma) | TGI (SF-295 CNS) | TGI (EKVX NSCLC) | TGI (LXFL 529 NSCLC) | TGI (HCT-15 colon) | TGI (OVCAR-8 ovarian) | TGI (RXF 393 renal) | TGI (SK-MEL-28 melanoma) | TGI (HCC-2998 colon) | TGI (IGROV1 ovarian) | TGI (UACC-62 melanoma) | TGI (OVCAR-4 ovarian) | TGI (HT29 colon) | TGI (SF-268 CNS) | TGI (SK-MEL-2 melanoma) | TGI (DMS 273 small cell lung) | TGI (M14 melanoma) | TGI (SNB-78 CNS) | TGI (HOP-62 NSCLC) | TGI (DMS 114 small cell lung) | TGI (RPMI-8226 leukemia) | TGI (NCI-H522 lung) | TGI (A498 renal) | TGI (MALME-3M melanoma) | TGI (KM20L2 colon) | TGI (NCI-H226 lung) | TGI (CCRF-CEM leukemia) | TGI (SN12C renal) | TGI (786-0 renal) | TGI (K-562 leukemia) | TGI (NCI-H460 lung) | TGI (UO-31 renal)

COc1ccc2nc3cccc([N+](=O)[O-])c3c(NCCN(CCO)CCO)c2c1
50.1 nM: TGI (OVCAR-3 ovarian)
4600 nM: TGI (NCI/ADR-RES ovarian)
18 nM: TGI (NCI-H522 lung)
76.9 nM: TGI (MDA-N)
698 nM: TGI (EKVX NSCLC)
225 nM: TGI (SNB-75 CNS)
140 nM: TGI (BT-549 breast)
17.5 nM: TGI (SK-MEL-5 melanoma)
717 nM: TGI (DU-145 prostate)
202 nM: TGI (KM12 colon)
43 nM: TGI (HT29 colon)
272 nM: TGI (HS 578T breast)
40.8 nM: TGI (MALME-3M melanoma)
771 nM: TGI (SK-OV-3 ovarian)
98.5 nM: TGI (NCI-H460 lung)
548 nM: TGI (MCF7 breast)
31 nM: TGI (COLO 205 colon)
242 nM: TGI (IGROV1 ovarian)
22.4 nM: TGI (SK-MEL-2 melanoma)
active: GI50 (A549 NSCLC) 25.7 nM | GI50 (HCT-116 colon) 15.4 nM | GI50 (MDA-N) 23 nM | GI50 (CAKI-1 renal) 38.2 nM | GI50 (HOP-92 NSCLC) 27.8 nM | GI50 (MOLT-4 leukemia) 16.1 nM | GI50 (SNB-19 CNS) 129 nM | GI50 (HL-60(TB) leukemia) 23.5 nM | GI50 (COLO 205 colon) 11.8 nM | GI50 (OVCAR-3 ovarian) 18.7 nM | GI50 (U251 CNS) 21 nM | GI50 (SK-OV-3 ovarian) 106 nM | GI50 (LOX IMVI melanoma) 37.9 nM | GI50 (SF-539 CNS) 89.3 nM | GI50 (MDA-MB-231 breast) 38.5 nM | GI50 (SNB-75 CNS) 74.7 nM | GI50 (TK-10 renal) 30.7 nM | GI50 (KM12 colon) 36.7 nM | GI50 (ACHN renal) 14.2 nM | GI50 (T-47D breast) 91.3 nM | GI50 (SW-620 colon) 13.9 nM | GI50 (UACC-257 melanoma) 24.8 nM | GI50 (SF-295 CNS) 30.4 nM | GI50 (EKVX NSCLC) 107 nM | GI50 (HCT-15 colon) 157 nM | GI50 (OVCAR-8 ovarian) 14 nM | GI50 (RXF 393 renal) 15.5 nM | GI50 (MCF7 breast) 13.8 nM | GI50 (SK-MEL-28 melanoma) 44.4 nM | GI50 (HCC-2998 colon) 13.7 nM | GI50 (IGROV1 ovarian) 32.9 nM | GI50 (UACC-62 melanoma) 31.1 nM | GI50 (NCI-H23 lung) 20.2 nM | GI50 (OVCAR-4 ovarian) 22.2 nM | GI50 (HT29 colon) 11.7 nM | GI50 (OVCAR-5 ovarian) 29.1 nM | GI50 (SF-268 CNS) 33.2 nM | GI50 (SK-MEL-2 melanoma) 11.7 nM | GI50 (M14 melanoma) 12.8 nM | GI50 (MDA-MB-435) 17.5 nM | GI50 (HOP-62 NSCLC) 30.4 nM | GI50 (RPMI-8226 leukemia) 15.5 nM | GI50 (DU-145 prostate) 14 nM | GI50 (A498 renal) 22 nM | GI50 (MALME-3M melanoma) 15.8 nM | GI50 (BT-549 breast) 41.5 nM | GI50 (NCI-H226 lung) 82.2 nM | GI50 (CCRF-CEM leukemia) 32.6 nM | GI50 (SN12C renal) 48.6 nM | GI50 (786-0 renal) 26.8 nM | GI50 (K-562 leukemia) 13 nM | GI50 (NCI-H460 lung) 10.4 nM | GI50 (UO-31 renal) 53.9 nM | GI50 (SR leukemia) 17 nM | GI50 (HS 578T breast) 64.7 nM
1490 nM: TGI (HL-60(TB) leukemia)
82.9 nM: TGI (HOP-92 NSCLC)
49.5 nM: TGI (ACHN renal)
59.9 nM: TGI (UACC-257 melanoma)
247 nM: TGI (CCRF-CEM leukemia)
1450 nM: TGI (SNB-19 CNS)
403 nM: TGI (A549 NSCLC)
619 nM: TGI (SW-620 colon)
270 nM: TGI (SF-539 CNS)
60800 nM: TGI (HCT-15 colon)
inactive: GI50 (NCI/ADR-RES ovarian) 689 nM
607 nM: TGI (HCT-116 colon)
32 nM: TGI (RXF 393 renal)
337 nM: TGI (SF-295 CNS)
68.5 nM: TGI (OVCAR-4 ovarian)
219 nM: TGI (PC-3 prostate)
109 nM: TGI (UACC-62 melanoma)
138 nM: TGI (OVCAR-8 ovarian) | TGI (OVCAR-5 ovarian)
40.6 nM: TGI (MDA-MB-435)
184 nM: TGI (UO-31 renal)
180 nM: TGI (LOX IMVI melanoma)
136 nM: TGI (MOLT-4 leukemia) | TGI (U251 CNS)
536 nM: TGI (NCI-H226 lung)
156 nM: TGI (786-0 renal)
234 nM: TGI (SF-268 CNS)
52.4 nM: TGI (A498 renal)
443 nM: TGI (SN12C renal)
414 nM: TGI (SK-MEL-28 melanoma)
102 nM: TGI (RPMI-8226 leukemia)
27.5 nM: TGI (M14 melanoma)
1010 nM: TGI (T-47D breast)
229 nM: TGI (TK-10 renal)
48.7 nM: TGI (K-562 leukemia)
330 nM: TGI (CAKI-1 renal)
647 nM: TGI (SR leukemia)
153 nM: TGI (HOP-62 NSCLC)
48 nM: TGI (NCI-H23 lung)
420 nM: TGI (MDA-MB-231 breast)
33.1 nM: TGI (HCC-2998 colon)
